According to patent US20240092782A1, “TRICYCLIC PESTICIDAL COMPOUNDS” (BASF SE, priority 2021, published 2024):

How the values were obtained:
Assay type in all cases: in vivo
[1] = test system: yellow fever mosquito (Aedes aegypti); test: whole plant or invertebrate; conditions: 48 h, larval mortality after 2 days, read-out: mortality in comparison with untreated controls
Method: Yellow Fever Mosquito (Aedes aegypti)
For evaluating control of yellow fever mosquito (Aedes aegypti) the test unit consisted of 96-well-microtiter plates containing 200 μl of tap water per well and 5-15 freshly hatched A. aegypti larvae. The active compounds were formulated using a solution containing 75% (v/v) water and 25% (v/v) DMSO. Different concentrations of formulated compounds or mixtures were sprayed onto the insect diet at 2.5 μl, using a custom built micro atomizer, at two replications. After application, microtiter plates were incubated at 28+1° C., 80+5% RH for 2 days. Larval mortality was then visually assessed.

[2] = test system: boll weevil (Anthonomus grandis); test: Boll weevil (Anthonomus grandis) egg and larval mortality, insect diet microtiter plate; conditions: 120 h, egg and larval mortality after 5 days, read-out: mortality in comparison with untreated controls
Method: Boll Weevil (Anthonomus grandis)
(§1) For evaluating control of boll weevil (Anthonomus grandis) the test unit consisted of 96-well-microtiter plates containing an insect diet and 5-10 A. grandis eggs. The compounds were formulated using a solution containing 75% v/v water and 25% v/v DMSO. Different concentrations of formulated compounds were sprayed onto the insect diet at 5 μl, using a custom built micro atomizer, at two replications. After application, microtiter plates were incubated at about 25±1° C. and about 75±5% relative humidity for 5 days. Egg and larval mortality was then visually assessed.

[3] = test system: tobacco budworm (Heliothis virescens); test: whole plant or invertebrate; conditions: 120 h, egg and larval mortality after 5 days, read-out: mortality in comparison with untreated controls
Method: Tobacco Budworm (Heliothis virescens)
as §1, with “of tobacco budworm (Heliothis virescens)” for “of boll weevil (Anthonomus grandis)”, “and 15-25 H. virescens” for “and 5-10 A. grandis”, “at 10” for “at 5”, “about 28±1°” for “about 25±1°”, “about 80±5%” for “about 75±5%”

[4] = test system: Green Peach Aphid (Myzus persicae); test: whole plant or invertebrate; conditions: 120 h, aphid mortality after 5 days, read-out: mortality in comparison with untreated controls
Method: Green Peach Aphid (Myzus persicae)
The 10,000 ppm solution was serially diluted in 100% cyclohexanone to make interim solutions. These served as stock solutions for which final dilutions were made by the Tecan in 50% acetone:50% water (v/v) into 10 or 20 ml glass vials. A nonionic surfactant (Kinetic®) was included in the solution at a volume of 0.01% (v/v). The vials were then inserted into an automated electrostatic sprayer equipped with an atomizing nozzle for application to plants/insects. Bell pepper plants at the first true-leaf stage were infested prior to treatment by placing heavily infested leaves from the main colony on top of the treatment plants. Aphids were allowed to transfer overnight to accomplish an infestation of 30-50 aphids per plant and the host leaves were removed. The infested plants were then sprayed by an automated electrostatic plant sprayer equipped with an atomizing spray nozzle. The plants were dried in the sprayer fume hood, removed, and then maintained in a growth room under fluorescent lighting in a 14:10 light:dark photoperiod at about 25° C. and about 20-40% relative humidity. Aphid mortality on the treated plants, relative to mortality on untreated control plants, was determined after 5 days.

[5] = test system: Red Spider Mite (Tetranychus kanzawai); test: Red spider mite (Tetranychus kanzawai) mortality on sprayed cowpea beans; conditions: 72 hours after treatment, read-out: mortality in comparison with untreated controls
Method: Red Spider Mite (Tetranychus kanzawai)
The active compound of formula ( ))s dissolved at the desired concentration in a mixture of 1:1 (vol:vol) distilled water:acetone. Add surfactant (Kinetic) is added at a rate of 0.01% (vol/vol).The test solution is prepared at the day of use. Potted cowpea beans of 4-5 days of age are cleaned with tap water and sprayed with 1-2 ml of the test solution using air driven DeVilbiss® hand atomizer at 20-30 psi (≈1.38 to 2.07 bar). The treated plants are allowed to air dry and afterwards inoculated with 30 or more mites by clipping a cassava leaf section from rearing population. Treated plants are placed inside a holding room at about 25-26° C. and about 65-70% relative humidity. Estimate percent mortality is assessed 72 hours after treatment.

CCS(=O)(=O)c1cc(Br)cnc1-c1nc2cc(C(F)(F)F)n3ncnc3c2n1C [I.2, 8-(5-bromo-3-(ethylsulfonyl)pyridin-2-yl)-9-methyl-5-(trifluoromethyl)-9H-imidazo[4,5-c][1,2,4]triazolo[1,5-a]pyridine]
> 70%: mortality at 10 ppm ([1]; 10 ppm) | mortality at 30 ppm ([2]; 30 ppm) | mortality at 10 ppm ([3]; 10 ppm) | mortality at 10 ppm ([4]; 10 ppm) | mortality at 10 ppm ([5]; 10 ppm)

CCS(=O)(=O)c1cc(Br)ccc1-c1nc2cc(C(F)(F)F)n3ncnc3c2n1C [I.8, 11-(4-bromo-2-ethylsulfonyl-phenyl)-12-methyl-7-(trifluoromethyl)-3,5,6,10,12-pentazatricyclo[7.3.0.02,6]dodeca-1(9),2,4,7,10-pentaene]
> 70%: mortality at 800 ppm ([1]; 800 ppm) | mortality at 800 ppm [2] | mortality at 800 ppm ([3]; 800 ppm) | mortality at 800 ppm ([4]; 800 ppm) | mortality at 800 ppm [5]

CCS(=O)(=O)c1cc(N=S(C)(C)=O)cnc1-c1cn2c(cc(C(F)(F)F)n3ccnc32)n1 [I.24, [5-ethylsulfonyl-6-[7-(trifluoromethyl)-1,3,6,10-tetrazatricyclo[7.3.0.02,6]dodeca-2,4,7,9,11-pentaen-11-yl]-3-pyridyl]imino-dimethyl-oxo-λ6-sulfane]
> 70%: mortality at 800 ppm [2] | mortality at 800 ppm [5]
